From patent publication US20250359548A1, “METHODS OF IMPROVING STRESS TOLERANCE, GROWTH AND YIELD IN PLANTS” (Valent BioSciences LLC, priority 2020, published 2025)

Tests used:
Assay type in all cases: in vivo
Apogee wheat [1] = assay: Example 3: grain yield in Apogee wheat under well-watered conditions, two sprays
Protocol: (§1) To determine if the mixtures provided unexpected results, the observed combined efficacy (“OCE”) was divided by the expected combined efficacy (“ECE”) to give an OCE/ECE ratio wherein the expected ECE is calculated by a variation of the Abbott method:
(§2) [formula] • wherein ECE is the expected combined efficacy and in which X is the control efficacy and A and B are the efficacy provided by the single active ingredients. If the ratio between the OCE of the mixture and the ECE of the mixture is greater than 1, then greater than expected interactions are present in the mixture. (Gisi, The American Phytopathological Society, 86:11, 1273-1279, 1996).
32 pots of Apogee wheat were grown in a greenhouse under ideal growing conditions. Specifically, wheat was planted in ProMix® growth media and grown for about seven weeks in a growth cabinet at 24/18° C. day/night temperature under a 16/8 hour light/dark photoperiod. Next, spray applications of 0.025% v/v Latron B-1956® in water, 30 ppm ABA, 10 ppm CPPU, and a mixture of 30 ppm ABA and 10 ppm CPPU (n=8) were made using a tank sprayer at Feekes stage 11.0. A second chemical spray application was made seven days after first spray. Plants were then grown under ideal conditions for an additional 5-6 weeks until they reached physiological maturity. Plants were then destructively harvested and measured for spike weight, grain yield, yield per spike and total above ground biomass.

Apogee wheat [2] = assay: Example 1: grain yield in Apogee wheat under water stress (greenhouse pots, spray at Feekes 11.0); conditions: drought stress
Protocol: 42 pots of Apogee wheat were grown in a greenhouse under ideal growing conditions. Specifically, wheat was planted in ProMix® growth media and grown for about-seven weeks in a growth cabinet at 24/18° C. day/night temperature under a 16/8 hour light/dark photoperiod. Next, spray applications of 0.025% v/v Latron B-1956® in water, 30 ppm ABA, 30 ppm 6BA, 10 ppm CPPU, a mixture of 30 ppm ABA and 30 ppm 6BA and a mixture of 30 ppm ABA and 10 ppm CPPU (n=7) were made using a tank sprayer at Feekes stage 11.0. Plants were then grown with no additional water for next 3-5 days until drought stress conditions and water-deficit stress-related phenotypes were apparent. Specifically, drought stress conditions are determined as when pots have lost 60-70% of stored soil water, as determined by determined gravimetrically by weighing pots, through evapotranspiration and water-deficit stress-related phenotypes include wilting and leaf-rolling. Plants were re-watered to bring soil moisture to saturation and subsequently grown under optimal conditions until physiological maturity. Plants were then destructively harvested and measured for spike weight, grain weight, yield per spike and harvest index. Harvest index is calculated by dividing pounds of grain by the total pounds of above ground biomass.
as §1, §2

rice [3] = assay: Example 5: grain yield in rice (spray at R6)
Protocol: as §1, §2
32 pots of rice were grown in a greenhouse under ideal growing conditions. Specifically, rice was planted in growth media comprising sand and Pro-Mix® BX and grown for about 3-4 weeks in a growth cabinet at 24/18° C. day/night temperature under a 18/6 hour light/dark photoperiod. Next, spray applications of 0.025% v/v Latron B-1956® in water, 30 ppm ABA, 10 ppm CPPU, and a mixture of 30 ppm ABA and 10 ppm CPPU (n=8) were made using a tank sprayer at early grain filling stage (growth stage R6). Plants were then grown under ideal conditions for an additional 5-7 weeks. Plants were then destructively harvested and measured for yield of top six panicles, yield from other panicles (not top six panicles), yield of all panicles, yield per panicle and yield per top six panicles.

Apogee wheat [4] = assay: Example 4: grain yield in Apogee wheat under water stress, dose combinations; conditions: drought stress
Protocol: as §1, §2
72 pots of Apogee wheat were grown in a greenhouse under ideal growing conditions. Specifically, wheat was planted in ProMix® growth media and grown for about seven weeks in a growth cabinet at 24/18° C. day/night temperature under a 16/8 hour light/dark photoperiod. Next, spray applications of 0.025% v/v Latron B-1956® in water, 10 ppm ABA, 30 ppm ABA, 5 ppm CPPU, 10 ppm CPPU, a mixture of 10 ppm ABA and 5 ppm CPPU, a mixture of 30 ppm ABA and 5 ppm CPPU, a mixture of 10 ppm ABA and 10 ppm CPPU and a mixture of 30 ppm ABA and 10 ppm CPPU (n=8) were made using a tank sprayer at Feekes stage 11.0. Plants were then grown with no additional water for next 3-5 until drought stress conditions and water-deficit stress related phenotype was apparent. Plants were re-watered to bring soil moisture to saturation and grown under optimal conditions until physiological maturity. Plants were then destructively harvested and measured for spike weight, grain yield, yield per spike and total above ground biomass.

rice [5] = assay: Example 6: grain yield in rice (spray at R5 to R6); conditions: 30 ppm spray at R5 to R6
Protocol: as §1, §2
48 pots of rice were grown in a greenhouse under ideal growing conditions. Specifically, rice was planted in growth media comprising sand and Pro-Mix® BX and grown for about 3-4 weeks in a growth cabinet at 24/18° C. day/night temperature under a 18/6 hour light/dark photoperiod. Next, spray applications of 0.025% v/v Latron B-1956® in water, 30 ppm ABA, 30 ppm 6BA, 45 ppm 6BA, a mixture of 30 ppm ABA and 30 ppm 6BA, and a mixture of 30 ppm ABA and 45 ppm 6BA (n=8) were made using a tank sprayer at early grain filling stage (growth stage R5 to R6). Plants were then grown under ideal conditions for an additional 5-7 weeks. Plants were then destructively harvested and measured for yield of top six panicles, yield from other panicles (not top six panicles), yield of all panicles, yield per panicle and yield per top six panicles.

Barley = assay: Example 9: grain yield in field barley, Argentina 2020
Protocol: Barley was grown in the field in Pieres, Buenos Aires Province, Argentina from Jun. 15 to Dec. 30, 2020. 2 g/HA ABA, 6 g/HA ABA and mixtures of 2 g/HA ABA and 2 g/HA 6BA and 4 g/HA ABA and 2 g/HA 6BA (n=8) were made using a tank sprayer at the beginning of milk grains (growth stage Zadoks 7.2). Plants were then grown until mature. Plants were then destructively harvested and measured for grain yield.

Apogee wheat [6] = assay: Example 2: grain yield in Apogee wheat under water stress; conditions: 30 ppm spray; drought stress
Protocol: as §1, §2
Thirty-two pots of Apogee wheat were grown in a greenhouse under ideal growing conditions. Specifically, wheat was planted in ProMix® growth media and grown for about seven weeks in a growth cabinet at 24/18° C. day/night temperature under a 16/8 hour light/dark photoperiod. Next, spray applications of 0.025% v/v Latron B-1956® in water, 30 ppm ABA, 30 ppm 6BA, and a mixture of 30 ppm ABA and 30 ppm 6BA (n=8) were made using a tank sprayer at Feekes stage 11.0. Plants were then grown with no additional water for the next 3-5 days until drought stress conditions and water-deficit stress-related phenotypes were apparent. Plants were re-watered to bring soil moisture to saturation and grown under optimal conditions until physiological maturity. Plants were then destructively harvested and measured for shoot weight, spike weight, grain yield, yield per spike and total above ground biomass.

Soybean = assay: Example 8: grain yield in field soybean, Seymour IL 2020
Protocol: (§3) Soybean was grown in the field in Seymour, IL in 2020. Spray applications of water, 2 g/HA ABA, 6 g/HA ABA and a mixture of 2 g/HA ABA and 2 g/HA 6BA (n=8) were made using a tank sprayer at the beginning of seeding (growth stage R4 to R5). Plants were then grown until mature. Plants were then destructively harvested and measured for grain yield.

Corn = assay: Example 7: grain yield in field corn, Seymour IL 2020
Protocol: as §3, with “Corn” for “Soybean”, “blister to milk stage” for “beginning of seeding”, “R2-R3).” for “R4 to R5).”

`O=C(Nc1ccccc1)Nc1ccnc(Cl)c1` [CPPU, n-(2-chloro-4-pyridyl)-n′-phenylurea] was tested, and the “Grain Yield” value (Apogee wheat [1]; 10 ppm) was 8.28 grams, the “Spike Weight” value (Apogee wheat [1]; 10 ppm) was 11.86 grams and the “Total Above Ground Biomass” value (Apogee wheat [1]; 10 ppm) was 15.98 grams. For the same compound, the Yield/Spike (Apogee wheat [1]; 10 ppm) was 0.95 grams, the “Grain Yield” value (Apogee wheat [2]; 10 ppm spray) was 9.69 grams and the “Harvest Index” value (Apogee wheat [2]; 10 ppm spray) was 0.56. For the same compound, the “Spike Weight” value (Apogee wheat [2]; 10 ppm spray) was 12.99 grams, the Yield/Spike (Apogee wheat [2]; 10 ppm spray) was 1.34 grams and the “Yield of All” value (rice [3]; 10 ppm spray at R6) was 26.33 grams. For the same compound, the “Yield of Others” value (rice [3]; 10 ppm spray at R6) was 11.16 grams, the “Yield of Top 6” value (rice [3]; 10 ppm spray at R6) was 15.17 grams and the “Yield per Panicle” value (rice [3]; 10 ppm spray at R6) was 2.22 grams. For the same compound, the “Yield per Top 6” value (rice [3]; 10 ppm spray at R6) was 2.53 grams, the “Grain Yield” value (Apogee wheat [4]; 5 ppm spray) was 6.20 grams and the “Spike Weight” value (Apogee wheat [4]; 5 ppm spray) was 8.57 grams. For the same compound, the “Total Above Ground Biomass” value (Apogee wheat [4]; 5 ppm spray) was 11.34 grams, the Yield/Spike (Apogee wheat [4]; 5 ppm spray) was 0.98 grams and the “Grain Yield” value (Apogee wheat [4]; 10 ppm spray) was 6.32 grams. For the same compound, the “Spike Weight” value (Apogee wheat [4]; 10 ppm spray) was 8.12 grams, the “Total Above Ground Biomass” value (Apogee wheat [4]; 10 ppm spray) was 10.94 grams and the Yield/Spike (Apogee wheat [4]; 10 ppm spray) was 1.00 grams.

For (S)-abscisic acid [ABA], the “Grain Yield” value (Apogee wheat [1]; 30 ppm) was 8.49 grams, the “Spike Weight” value (Apogee wheat [1]; 30 ppm) was 11.60 grams and the “Total Above Ground Biomass” value (Apogee wheat [1]; 30 ppm) was 15.38 grams. The Yield/Spike (Apogee wheat [1]; 30 ppm) was 1.04 grams, the “Grain Yield” value (Apogee wheat [2]; 30 ppm spray) was 10.24 grams and the “Harvest Index” value (Apogee wheat [2]; 30 ppm spray) was 0.55. For the same compound, the “Spike Weight” value (Apogee wheat [2]; 30 ppm spray) was 14.06 grams, the Yield/Spike (Apogee wheat [2]; 30 ppm spray) was 1.40 grams and the “Yield of All” value (rice [5]) was 23.70 grams. For the same compound, the “Yield of Others” value (rice [5]) was 5.22 grams, the “Yield of Top 6” value (rice [5]) was 19.14 grams and the “Yield per Panicle” value (rice [5]) was 2.95 grams. The “Yield per Top 6” value (rice [5]) was 3.19 grams, the “Grain Yield” value (Barley; 2 g/HA spray at Zadoks 7.2) was 5319 and the “Grain Yield” value (Barley; 6 g/HA spray at Zadoks 7.2) was 5114. The “Grain Yield” value (Apogee wheat [6]) was 12.12 grams, the “Shoot Weight” value (Apogee wheat [6]) was 5.04 grams and the “Spike Weight” value (Apogee wheat [6]) was 15.66 grams. For the same compound, the “Total Above Ground Biomass” value (Apogee wheat [6]) was 20.70 grams, the Yield/Spike (Apogee wheat [6]) was 1.33 grams and the “Grain Yield” value (Soybean; 2 g/HA spray at R4 to R5) was 96.57 bushels/acre. For the same compound, the “Grain Yield” value (Soybean; 6 g/HA spray at R4 to R5) was 93.80 bushels/acre, the “Yield of All” value (rice [3]; 30 ppm spray at R6) was 28.47 grams and the “Yield of Others” value (rice [3]; 30 ppm spray at R6) was 12.72 grams. For the same compound, the “Yield of Top 6” value (rice [3]; 30 ppm spray at R6) was 15.75 grams, the “Yield per Panicle” value (rice [3]; 30 ppm spray at R6) was 2.34 grams and the “Yield per Top 6” value (rice [3]; 30 ppm spray at R6) was 2.63 grams. The “Grain Yield” value (Apogee wheat [4]; 10 ppm spray) was 6.95 grams, the “Spike Weight” value (Apogee wheat [4]; 10 ppm spray) was 9.22 grams and the “Total Above Ground Biomass” value (Apogee wheat [4]; 10 ppm spray) was 12.11 grams. The Yield/Spike (Apogee wheat [4]; 10 ppm spray) was 1.08 grams, the “Grain Yield” value (Apogee wheat [4]; 30 ppm spray) was 6.72 grams and the “Spike Weight” value (Apogee wheat [4]; 30 ppm spray) was 8.90 grams. For the same compound, the “Total Above Ground Biomass” value (Apogee wheat [4]; 30 ppm spray) was 11.47 grams, the Yield/Spike (Apogee wheat [4]; 30 ppm spray) was 1.06 grams and the “Grain Yield” value (Corn; 2 g/HA spray at R2-R3) was 225 bushels/acre. For the same compound, the “Grain Yield” value (Corn; 6 g/HA spray at R2-R3) was 234 bushels/acre.
